This passage reports pest or weed control results from patent publication US8513162B2, “Halogen-containing organosulfur compound and use thereof” (Sumitomo Chemical Company, Limited, priority 2008, dated 2013).

Bounds are passed on as bounds.

Format in all cases: in vivo
One assay relates to Musca domestica. As to the kind of experiment: Test Example 4: filter paper with sucrose bait, Musca domestica. The note with it: 24 h, read-out: pest death rate. How it is done:
A formulation of any one of the present compounds (1), (4), (6), (7), (9), (10), (11), (12), (13), (15), (16), (17), (18), (19), (20), (21), (22), (24), (25) and (26) obtained in Formulation Example 5 was diluted with water to prepare a test solution having 500 ppm of the active ingredient.
A filter paper having a diameter of 5.5 cm was spread on the bottom of a polyethylene cup having a diameter of 5.5 cm and 0.7 ml of the test solution was added dropwise onto the filter paper. As a bait, 30 mg of sucrose was uniformly placed on the filter paper. Into the polyethylene cup, 10 female imagoes of Musca domestica were released and the cup was sealed with a lid. After 24 hours, the number of surviving or dead Musca domestica was counted and the death rate of the pest was calculated.

A further assay relates to Blattalla germanica. As to the kind of experiment: Test Example 5: filter paper with sucrose bait, Blattalla germanica. Conditions: 144 h; 500 ppm active ingredient, 0.7 ml on filter paper; 2 male imagoes of Blattalla germanica; after 6 days; read-out: pest death rate. How it is done:
A formulation of any one of the present compounds (4), (5), (6), (8), (12), (15), (16), (18), (22), (23) and (24) obtained in Formulation Example 5 was diluted with water to prepare a test solution having 500 ppm of the active ingredient.
A filter paper having a diameter of 5.5 cm was spread on the bottom of a polyethylene cup having a diameter of 5.5 cm and 0.7 ml of the test solution was added dropwise onto the filter paper. As a bait, 30 mg of sucrose was uniformly placed on the filter paper. Into the polyethylene cup, 2 male imagoes of Blattalla germanica were released and the cup was sealed with a lid. After 6 days, the number of surviving or dead Blattalla germanica was counted and the death rate of the pest was calculated.

The next assay deals with Culex pipiens pallens. Put plainly: Test Example 6: Culex pipiens pallens larvae in treated water. Conditions: 24 h, read-out: pest death rate. How it is done: A formulation of any one of the present compounds (4), (5), (6), (7), (8), (9), (11), (12), (15), (16), (18), (19), (20), (21), (22), and (26) obtained in Formulation Example 5 was diluted with water to prepare a test solution having 500 ppm of the active ingredient.
To 100 mL of ion-exchanged water, 0.7 ml of the test solution was added (active ingredient concentration: 3.5 ppm). Into the solution, 20 last-instar larvae of Culex pipiens pallens were released. After 1 day, the number of surviving or dead Culex pipiens pallens was counted and the death rate of the pest was calculated.

Turning to `N#CC(CCC(F)(F)C(F)(F)F)S(=O)(=O)CC1CCCCO1` (single isomer, unassigned) [present compound (22), 5,5,6,6,6-pentafluoro-2-(tetrahydropyran-2-ylmethanesulfonyl)hexanenitrile], the pest or weed control at 500 ppm in the assay with Musca domestica was not below 90%; in the assay on Blattalla germanica it was 100%. Moreover, the pest or weed control at 3.5 ppm with Culex pipiens pallens is not below 95%.
For `C#CCC1CCC(CSCCC(F)(F)F)O1` (single isomer, unassigned) [present compound (23), 2-(prop-2-ynyl)-5-(3,3,3-trifluoropropylthiomethyl)tetrahydrofuran], the pest or weed control at 500 ppm in the assay with Blattalla germanica amounted to 100%.
Take `C#CCC1CCC(CS(=O)(=O)CCC(F)(F)F)O1` (single isomer, unassigned) [present compound (24), 2-(prop-2-ynyl)-5-(3,3,3-trifluoropropanesulfonylmethyl)tetrahydrofuran]: the pest or weed control at 500 ppm with Musca domestica was not below 90%; with Blattalla germanica, 100%.
For the molecule `CCOC(=O)N1CCC(C(C#N)S(=O)(=O)CCC(F)(F)F)CC1` (centres unmarked) [present compound (1), 2-[N-(ethoxycarbonyl)piperidin-4-yl]-2-(3,3,3-trifluoropropylsulfonyl)acetonitrile], the pest or weed control at 500 ppm in the assay on Musca domestica was not below 90%.
For `N#CC(C1CCSCC1)S(=O)(=O)CCC(F)(F)F` (centres unmarked) [present compound (4), 2-(tetrahydrothiopyran-4-yl)-2-(3,3,3-trifluoropropylsulfonyl)acetonitrile], the pest or weed control at 500 ppm was not below 90% in the assay with Musca domestica and 100% with Blattalla germanica. Besides, in the assay on Culex pipiens pallens, the pest or weed control at 3.5 ppm was not below 95%.
For `N#CC(C1CC[S+]([O-])CC1)S(=O)(=O)CCC(F)(F)F` (centres unmarked) [present compound (5), 2-(1-oxo-1λ^4-tetrahydrothiopyran-4-yl)-2-(3,3,3-trifluoropropylsulfonyl)acetonitrile], in the assay with Blattalla germanica, the pest or weed control at 500 ppm was 100%. Besides, the pest or weed control at 3.5 ppm with Culex pipiens pallens was not below 95%.
Turning to `N#CC(C1CCS(=O)(=O)CC1)S(=O)(=O)CCC(F)(F)F` (centres unmarked) [present compound (6), 2-(1,1-dioxo-1λ^4-tetrahydrothiopyran-4-yl)-2-(3,3,3-trifluoropropylsulfonyl)acetonitrile], the pest or weed control at 500 ppm is not below 90% in the assay with Musca domestica and 100% in the assay on Blattalla germanica. The pest or weed control at 3.5 ppm in the assay with Culex pipiens pallens was not below 95%.
With `N#CC(C1CCSC1)S(=O)(=O)CCC(F)(F)F` (centres unmarked) [present compound (7), 2-(tetrahydrothiophen-3-yl)-2-(3,3,3-trifluoropropylsulfonyl)acetonitrile], the pest or weed control at 500 ppm with Musca domestica was not below 90%. In addition, in the assay with Culex pipiens pallens, the pest or weed control at 3.5 ppm was not below 95%.
Take `N#CC(C1CC[S+]([O-])C1)S(=O)(=O)CCC(F)(F)F` (centres unmarked) [present compound (8), 2-(1-oxo-1λ^4-tetrahydrothiophen-3-yl)-2-(3,3,3-trifluoropropylsulfonyl)acetonitrile]: the pest or weed control at 500 ppm in the assay with Blattalla germanica amounted to 100%. Also, the pest or weed control at 3.5 ppm with Culex pipiens pallens is not below 95%.
Regarding `N#CC(CC1CCCO1)S(=O)(=O)CCC(F)(F)F` (centres unmarked) [present compound (10), 3-(2-tetrahydrofuran-2-yl)-2-(3,3,3-trifluoropropylsulfonyl)propionitrile], the pest or weed control at 500 ppm in the assay with Musca domestica was not below 90%.
On to `N#CC(CC1CCOC1)S(=O)(=O)CCC(F)(F)F` (centres unmarked) [present compound (11), 3-(tetrahydrofuran-3-yl)-2-(3,3,3-trifluoropropylsulfonyl)propionitrile], for which, in the assay on Musca domestica, the pest or weed control at 500 ppm was not below 90%. In addition, the pest or weed control at 3.5 ppm with Culex pipiens pallens is not below 95%.
As to `N#CC(CC1CCCCO1)S(=O)(=O)CCC(F)(F)F` (centres unmarked) [present compound (12), 3-(2-tetrahydropyran-2-yl)-2-(3,3,3-trifluoropropylsulfonyl)propionitrile], the pest or weed control at 500 ppm with Musca domestica was not below 90%; with Blattalla germanica, 100%. In addition, the pest or weed control at 3.5 ppm in the assay with Culex pipiens pallens was not below 95%.
Consider `N#CC(CC1CCC(=O)O1)S(=O)(=O)CCC(F)(F)F` (centres unmarked) [present compound (13), 3-(2-oxotetrahydrofuran-5-yl)-2-(3,3,3-trifluoropropylsulfonyl)propionitrile], for which, in the assay on Musca domestica, the pest or weed control at 500 ppm is not below 90%.
In the case of `COC(=O)N1CCC(C(C#N)S(=O)(=O)CCC(F)(F)C(F)(F)F)CC1` (centres unmarked) [present compound (15), 2-[N-(methoxycarbonyl)piperidin-4-yl]-2-(3,3,4,4,4-pentafluorobutylsulfonyl)acetonitrile], the pest or weed control at 500 ppm with Musca domestica was not below 90%; in the assay with Blattalla germanica, 100%. In addition, the pest or weed control at 3.5 ppm in the assay on Culex pipiens pallens is not below 95%.
The matching figures for `N#CC(C1CCSCC1)S(=O)(=O)CCC(F)(F)C(F)(F)F` (centres unmarked) [present compound (16), 2-(tetrahydrothiopyran-4-yl)-2-(3,3,4,4,4-pentafluorobutylsulfonyl)acetonitrile]: not below 90%, 100% and not below 95%.
Turning to `N#CC(CCC(F)(F)F)S(=O)(=O)CC1CCCO1` (centres unmarked) [present compound (17), 5,5,5-trifluoro-2-(tetrahydrofuran-2-ylmethanesulfonyl)pentanenitrile], in the assay with Musca domestica, the pest or weed control at 500 ppm was not below 90%.
With `N#CC(CCC(F)(F)C(F)(F)F)S(=O)(=O)CC1CCCO1` (centres unmarked) [present compound (18), 5,5,6,6,6-pentafluoro-2-(tetrahydrofuran-2-ylmethanesulfonyl)hexanenitrile], the pest or weed control at 500 ppm was not below 90% in the assay with Musca domestica and 100% in the assay with Blattalla germanica. In addition, the pest or weed control at 3.5 ppm in the assay on Culex pipiens pallens is not below 95%.
For `N#CC(CCCC(F)(F)C(F)(F)F)S(=O)(=O)CC1CCCO1` (centres unmarked) [present compound (19), 6,6,7,7,7-pentafluoro-2-(tetrahydrofuran-2-ylmethanesulfonyl)heptanenitrile], the pest or weed control at 500 ppm with Musca domestica was not below 90%. For the same molecule, the pest or weed control at 3.5 ppm with Culex pipiens pallens was not below 95%.
In the case of `N#CC(CCC(F)(F)C(F)(F)F)S(=O)(=O)CCC1OCCO1` (centres unmarked) [present compound (21), 5,5,6,6,6,-pentafluoro-2-[2-(1,3-dioxolan-2-yl)ethanesulfonyl]pentanenitrile], in the assay on Musca domestica, the pest or weed control at 500 ppm is not below 90%. In addition, in the assay with Culex pipiens pallens, the pest or weed control at 3.5 ppm was not below 95%.
Consider `COC(=O)C(CCC(F)(F)C(F)(F)F)S(=O)(=O)CC1CCCO1` (centres unmarked) [present compound (25), methyl 5,5,6,6,6-pentafluoro-2-(tetrahydrofuran-2-ylmethanesulfonyl)hexanoate], for which, in the assay on Musca domestica, the pest or weed control at 500 ppm was not below 90%.
